According to US8017326B2, “Methods of modulating cell death based on the Bit-1/AES regulatory pathway” (Sanford-Burnham Medical Research Institute, priority 2002, dated 2011):
Where a SMILES comes first, the peptide text is derived from it. Where no end group is shown, it is not given here. The star is where a group is joined. Cbz = O=C(OCc1ccccc1)*; CH2F = FC*

What was measured:
CHO cells = test: Deletion analysis, cell death by trypan blue exclusion; assay type: cell-based, Chinese hamster; conditions: 10 μg construct, trypan blue exclusion 48 hours after transfection
Protocol: The amino-terminal portion of Bit1 (residues 16-40) is hydrophobic and can serve as a transmembrane domain or signal peptide sequence. When the hydrophobicity of this portion was reduced by substitution of glycine 22 and glycine 38 by serine, Bit1 apoptotic activity was reduced.
Deletion analysis was performed as follows. The indicated deletion mutants were cloned into vector pEGFP-C1, and 10 μg of each plasmid construct transfected into CHO cells. Cell death was measured by trypan blue exclusion 48 hours after transfection.
To delineate the pro-apoptotic domain of AES, a series of AES deletion mutants was prepared as amino-terminal fusions with GFP in vector pEGFP-C1. Various AES deletion constructs (10 μg) were transfected into CHO cells, and cell death measured by trypan blue exclusion 48 hours after transfection.

[1] = tested on: Bit1-induced apoptosis in HEK 293 cells; test: Co-transfection of Bit1 with anti-apoptotic proteins; assay type: cell-based, human; conditions: HEK 293 cells co-transfected with Bit1
Protocol: Co-transfections were performed with cells plated on non-coated dishes transfected with 5 μg Bit1 plasmid alone or together with 10 μg dominant negative (DN) R-Ras, or activated H-Ras plasmid (Zou et al., Proc. Natl. Acad. Sci. USA 96: 13813-13818 (1999)). […] Expression of the transfected proteins was confirmed by immunoblotting. Apoptosis was assayed as described above.

[2] = tested on: Bit1-induced apoptosis in 293T cells; test: Caspase inhibitors and anti-apoptotic proteins against Bit1; assay type: cell-based, human; conditions: cytosolic Bit1
Description: (§1) 293T cells were also co-transfected with Bit1 or AES and the caspase inhibitor proteins crmA and XIAP.

[3] = tested on: AES-induced apoptosis in 293T cells; test: Caspase inhibitors and anti-apoptotic proteins against AES; assay type: cell-based, human
Description: as §1

Bit1 in HeLa cells = test: Localization of C-terminally tagged Bit1 in cells induced to undergo apoptosis; assay type: cell-based; conditions: 0.5 μM staurosporin
Description: Colocalization of Bit1 with an endoplasmic reticulum or golgi marker was not observed.

[4] = tested on: Bit1-induced apoptosis in HEK 293 cells; test: Extracellular matrix proteins and Bit1-induced apoptosis, trypan blue staining; assay type: cell-based, human; conditions: HEK 293 cells plated onto coated dishes, 10 μg Bit1 plasmid, 48 hours
Protocol: Several extracellular matrix proteins were assayed for the ability to modulate Bit1-mediated apoptosis. Cells were plated onto bacterial culture dishes pre-coated overnight with fibronectin (Chemicon; Temecula; CA), vitronectin (SIGMA; St. Louis, Mo.) or type I collagen (SIGMA), and transfected and assayed for apoptosis as described above.
To analyze integrin involvement in protecting attached cells against the pro-apoptotic effect of Bit1, Bit1 cell lines expressing either α5β1 or αvβ1 as the main fibronectin receptor were compared. The two cell lines attach equally well to fibronectin but, like cytoplasmically truncated α5β1, αvβ1 fails to protect cells against apoptosis induced by serum deprivation (Zhang et al., supra, 1995; and Matter and Ruoslahti, supra, 2001).
Experiments with extracellular matrix proteins were performed as follows. Cells were plated onto uncoated tissue culture plates or onto bacterial culture plates coated with fibronectin, vitronectin or collagen, and allowed to attach in the presence of serum. The attachment was equal on all of these surfaces. The cells were then transfected with 10 μg of Bit1 expression plasmid; where indicated, cells were treated with a control IgG of unrelated specificity or monoclonal anti-human α5 antibody (Chemicon), both at 10 μg/ml. Cell death was measured by trypan blue staining 48 hours after the transfection.

[5] = tested on: Bit1-AES complex in HeLa cells; test: Co-immunoprecipitation of Bit1-AES complex, cells plated on fibronectin or collagen; assay type: cell-based; conditions: HeLa cells plated on fibronectin versus collagen, quantification of gel bands, 24 h after transfection
Protocol: In these experiments, HeLa cells were plated on fibronectin or collagen before transfection with pCMV-Myc-Bit1 (3 μg) and pCMV-flag-AES (3 μg) plasmids. Cell lysates were harvested 24 h after transfection and immunoprecipitated with anti-flag and immunoblotted with anti-myc. The total amount of DNA used was adjusted to 10 μg with empty vector in each transfection. The expression of the transfected AES in each sample was confirmed by immunoblotting 20 μl of the whole extract with anti-flag as is shown in FIG. 6C, lower boxes in B and C.
Thus, a low level of Bit1/AES complex correlated with cell survival and a high level is associated with apoptosis.

Compound: AES residues 57-88: AES deletion mutant, amino-terminal fusion with GFP (SEQ ID NO:9) (MQRHYVMYYEMSYGLNIEMHKQAEIVKRLNGI; also: amino-terminal fusion with GFP; UniProt Q08117 57-88, looked up, fragment)
- pro-apoptotic activity of deletion constructs (CHO cells): efficiently induced apoptosis

Compound: AES residues 1-56: AES deletion mutant, amino-terminal fusion with GFP (MMFPQSRHSGSSHLPQQLKFTTSDSCDRIKDEFQLLQAQYHSLKLECDKLASEKSE; cysteine pairing not given here; also: amino-terminal fusion with GFP; UniProt Q08117 1-56, looked up, fragment)
- pro-apoptotic activity of deletion constructs (CHO cells): no apoptotic activity

Compound: AES residues 57-105: AES deletion mutant, amino-terminal fusion with GFP (SEQ ID NO:8) (MQRHYVMYYEMSYGLNIEMHKQAEIVKRLNGICAQVLPYLSQEHQQQVL; also: amino-terminal fusion with GFP; UniProt Q08117 57-105, looked up, fragment)
- pro-apoptotic activity of deletion constructs (CHO cells): efficiently induced apoptosis

Compound: Bcl-2: anti-apoptotic protein, expression construct pcDNA3-Bcl-2
- effect on apoptosis induced by Bit1 [1]: little or no effect
- effect on apoptosis induced by Bit1 [2]: no effect
- effect on apoptosis induced by AES [3]: partially effective

Compound: CN[C@@H]1C[C@H]2O[C@@](C)([C@@H]1OC)n1c3ccccc3c3c4c(c5c6ccccc6n2c5c31)C(=O)NC4 [staurosporin]
- localization of C-terminally tagged Bit1 (Bit1 in HeLa cells): released into the cytoplasm

Compound: fibronectin
- protection from Bit1-induced apoptosis [4]: largely protected
- reduction in Bit1/AES complex on fibronectin [5]: approximately 75%

Compound: collagen: type I collagen coated on culture dishes (SIGMA)
- protection from Bit1-induced apoptosis [4]: could not confer the same protective effect

Compound: COC(=O)C[C@H](NC(=O)[C@H](C)NC(=O)[C@@H](NC(=O)OCc1ccccc1)C(C)C)C(=O)CF [z-VAD-fmk] (Cbz-Val-Ala-Asp(OMe)-CH2F)
- effect on apoptosis induced by Bit1 [2]: ineffective
- effect on apoptosis induced by AES [3]: ineffective
